pIC50: −log10 of the molar value. Read-outs that look alike come from different tables or passages of the source.
Experiments:
[1] = system: A/Hong Kong/2369/2009 (H1N1) oseltamivir resistant; assay: microbe, parasite or virus in culture; assay type: cell-based; conditions: Influenza A virus, H1N1, MDCK, read-out: IC90, VYR Assay
[2] = system: A/Hong Kong/2369/2009 (H1N1) oseltamivir resistant; assay: microbe, parasite or virus in culture; conditions: Influenza A virus, H1N1, MDCK, read-out: IC50, Neutral Red Uptake Assay
[3] = system: A/Hong Kong/2369/2009 (H1N1) oseltamivir resistant; assay: microbe, parasite or virus in culture; conditions: Influenza A virus, H1N1, MDCK, read-out: IC50, Visual Assay
[4] = system: A/Hong Kong/2369/2009 (H1N1) oseltamivir resistant
[5] = system: A/Hong Kong/2369/2009 (H1N1) oseltamivir resistant; remark: listed apart in the source

SMILES: Nc1ccn([C@@H]2O[C@H](CO)[C@@H](O)C2(F)F)c(=O)n1 [2’-deoxy-2’, 2’-difluorocytidine, reference compound]
- IC90 [1]: 30 nM
- pIC50 [2]: 7.27
- pIC50 [3]: 7.30
- SI (CC50/IC50), Neutral Red Uptake Assay [4]: >1900
- SI (CC50/IC50), Visual Assay [5]: >200

SMILES: Nc1ccn([C@@H]2O[C@H](CO)[C@@H](O)[C@H]2F)c(=O)n1 [2’-deoxy-2’-fluorocytidine, 2'-deoxy-2'-fluorocytidine]
- IC90 [1]: 6300 nM
- pIC50 [2]: 5.11
- pIC50 [3]: 5.68
- SI (CC50/IC50), Neutral Red Uptake Assay [4]: >12.8
- SI (CC50/IC50), Visual Assay [5]: >48

— paper PMC3216401 (Antiviral research, 2011)
